Test results published in the supplement of paper PMC10307832.

Legend:
Experiment in all cases: relative viability (nuclei count vs DMSO), 5 days (fraction); higher = more cells survive
Selisistat + Pemetrexed = compound: C1CC(C2=C(C1)C3=C(N2)C=CC(=C3)Cl)C(=O)N [Selisistat] + Nc1nc2[nH]cc(CCc3ccc(C(=O)N[C@@H](CCC(=O)O)C(=O)O)cc3)c2c(=O)[nH]1 [Pemetrexed] (partner 0.2 µM)
How it was run: (§1)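 Lung cancer cell lines in 1536-well plates were dosed by pin tool the day after seeding, either with one drug alone or with a fixed anchor-drug dose plus five library-drug doses (not always all listed) in √10 steps. After 5 days, cells were fixed and their nuclei stained in one step (final 0.05% Triton X-100, 1% formaldehyde, 1 ug/ml Hoechst), then counted on 4× images. Relative viability is the nuclei count in treated wells divided by that in vehicle wells. Values are medians of duplicate plates.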

Selisistat + Palbociclib = compound: C1CC(C2=C(C1)C3=C(N2)C=CC(=C3)Cl)C(=O)N [Selisistat] + CC(=O)c1c(C)c2cnc(Nc3ccc(N4CCNCC4)cn3)nc2n(C2CCCC2)c1=O [Palbociclib] (partner 0.5 µM)
How it was run: as §1

Serdemetan + Decitabine = compound: c1ccc2c(CCNc3ccc(Nc4ccncc4)cc3)c[nH]c2c1 [Serdemetan] + Nc1ncn([C@H]2C[C@H](O)[C@@H](CO)O2)c(=O)n1 [Decitabine] (partner 2 µM)
How it was run: as §1

Serdemetan + Alpelisib = compound: c1ccc2c(CCNc3ccc(Nc4ccncc4)cc3)c[nH]c2c1 [Serdemetan] + Cc1nc(NC(=O)N2CCC[C@H]2C(N)=O)sc1-c1ccnc(C(C)(C)C(F)(F)F)c1 [Alpelisib] (partner 2 µM)
How it was run: as §1

Row | Cell Line | relative viability (Selisistat + Pemetrexed; first compound 0.4 µM) | relative viability (Selisistat + Pemetrexed; first compound 1.265 µM) | relative viability (Selisistat + Pemetrexed; first compound 4 µM) | relative viability (Selisistat + Pemetrexed; first compound 12.65 µM) | relative viability (Selisistat + Pemetrexed; first compound 40 µM) | relative viability (Selisistat + Palbociclib; first compound 0.4 µM) | relative viability (Selisistat + Palbociclib; first compound 1.265 µM) | relative viability (Selisistat + Palbociclib; first compound 4 µM) | relative viability (Selisistat + Palbociclib; first compound 12.65 µM) | relative viability (Selisistat + Palbociclib; first compound 40 µM) | relative viability (Serdemetan + Decitabine; first compound 0.04 µM) | relative viability (Serdemetan + Decitabine; first compound 0.1265 µM) | relative viability (Serdemetan + Decitabine; first compound 0.4 µM) | relative viability (Serdemetan + Decitabine; first compound 1.265 µM) | relative viability (Serdemetan + Decitabine; first compound 4 µM) | relative viability (Serdemetan + Alpelisib; first compound 0.04 µM) | relative viability (Serdemetan + Alpelisib; first compound 0.1265 µM) | relative viability (Serdemetan + Alpelisib; first compound 0.4 µM) | relative viability (Serdemetan + Alpelisib; first compound 1.265 µM) | relative viability (Serdemetan + Alpelisib; first compound 4 µM)
1 | HCC-78 | 0.917 | 0.949 | 0.924 | 0.774 | 0.878 | 0.488 | 0.461 | 0.435 | 0.476 | 0.473 | 0.659 | 0.718 | 0.698 | 0.638 | 0.525 | 0.337 | 0.36 | 0.349 | 0.364 | 0.262
2 | IA-LM | – | – | – | – | – | – | – | – | – | – | – | – | – | – | – | 0.726 | 0.834 | 0.729 | 0.535 | 0.568
3 | NCI-H322M | 0.558 | 0.633 | – | 0.515 | 0.618 | 0.488 | 0.467 | – | 0.478 | 0.5 | 0.667 | 0.675 | 0.682 | 0.534 | 0.647 | 0.853 | 0.875 | 0.838 | 0.755 | 0.75
4 | NCI-H3122 | 0.184 | 0.198 | 0.187 | 0.205 | 0.188 | 0.223 | 0.191 | – | 0.191 | 0.178 | 0.451 | 0.444 | 0.469 | 0.322 | 0.368 | 0.809 | 0.715 | 0.779 | – | 0.771
5 | COR-L23 | 0.182 | 0.212 | 0.193 | 0.19 | 0.2 | 0.372 | 0.296 | 0.332 | 0.305 | 0.296 | 0.4 | 0.443 | 0.435 | 0.39 | 0.353 | 0.788 | 0.767 | 0.763 | 0.821 | 0.703
6 | NCI-H2087 | 0.681 | 0.624 | – | 0.634 | 0.691 | 0.224 | 0.278 | – | 0.261 | 0.287 | 0.285 | 0.23 | 0.251 | 0.145 | 0.135 | 1.1 | 0.986 | 1.09 | 0.669 | 0.532
7 | LC-2-ad | 0.263 | 0.268 | 0.268 | 0.285 | 0.261 | 0.508 | 0.49 | 0.498 | 0.502 | 0.555 | 0.795 | 0.727 | 0.679 | 0.714 | 0.634 | 0.987 | 0.804 | 0.803 | – | 0.806
8 | NCI-H1915 | 0.494 | 0.559 | 0.495 | 0.462 | 0.489 | 0.612 | 0.515 | 0.466 | 0.554 | 0.587 | 0.266 | 0.259 | 0.253 | 0.231 | 0.239 | 1.04 | 1.06 | 1.01 | 0.503 | 0.802
9 | NCI-H1793 | 1.06 | 0.824 | – | 1.03 | 0.867 | 0.338 | 0.304 | – | 0.34 | 0.328 | 0.46 | 0.449 | 0.361 | 0.219 | 0.231 | 0.704 | 0.738 | 0.754 | 0.53 | 0.347
10 | ChaGo-K-1 | 0.237 | 0.247 | 0.257 | 0.36 | 0.231 | 0.91 | 0.918 | 0.832 | 0.816 | 0.889 | 0.488 | 0.42 | 0.421 | 0.266 | 0.303 | – | – | – | – | –
11 | NCI-H522 | 1.03 | 0.646 | 0.781 | 0.94 | 1.1 | 1 | 0.969 | 0.714 | 0.921 | 1.02 | 0.677 | 0.775 | 0.68 | 0.691 | 0.613 | – | – | – | – | –
12 | NCI-H1299 | – | – | – | – | – | – | – | – | – | – | – | – | – | – | – | 0.992 | 0.996 | 1.03 | 0.96 | 0.968
13 | NCI-H1650 | 0.359 | 0.348 | 0.354 | 0.397 | 0.326 | 0.362 | 0.301 | 0.357 | 0.364 | 0.334 | 0.408 | 0.435 | 0.411 | 0.422 | 0.266 | – | – | – | – | –
14 | NCI-H1648 | 0.562 | 0.584 | – | 0.599 | 0.743 | 0.281 | 0.268 | – | 0.296 | 0.299 | – | 0.533 | 0.424 | 0.3 | 0.302 | – | – | – | – | –
15 | NCI-H596 | 0.514 | 0.546 | 0.485 | 0.475 | 0.478 | – | – | – | – | – | 0.965 | 0.94 | 0.772 | 0.636 | 0.588 | 0.477 | 0.498 | 0.481 | 0.369 | 0.298
16 | NCI-H727 | – | – | – | – | – | 0.738 | 0.613 | 0.442 | 0.601 | 0.637 | 0.849 | 0.797 | 0.828 | 0.965 | 0.826 | 0.597 | 0.522 | 0.593 | 0.487 | 0.418
17 | NCI-H2342 | 0.806 | 0.756 | 0.677 | 0.77 | 0.769 | 0.554 | 0.753 | 0.46 | 0.538 | 0.611 | 0.753 | 0.776 | 0.643 | 0.531 | 0.475 | – | – | – | – | –
18 | SW 900 | 0.468 | 0.464 | 0.461 | 0.517 | 0.46 | 0.549 | 0.517 | 0.502 | 0.553 | 0.511 | 0.398 | 0.473 | 0.433 | 0.331 | 0.284 | – | – | – | – | –
19 | A549 | – | – | – | – | – | – | – | – | – | – | 0.263 | 0.245 | 0.261 | 0.291 | 0.198 | 0.753 | 0.722 | 0.727 | 0.569 | 0.252
20 | NCI-H1563 | 0.831 | 0.857 | 0.713 | 0.664 | 0.611 | – | – | – | – | – | – | – | – | – | – | 0.89 | 0.893 | 0.931 | 0.815 | 0.763
21 | ABC-1 | – | – | – | – | – | 0.713 | 0.695 | – | 0.563 | 0.735 | 0.896 | 1.01 | 1.25 | 0.921 | 0.844 | 1.16 | 1.14 | 0.965 | 0.812 | 0.486
